Each molecule was assayed against T1, rat NaPi-2b (Rattus norvegicus, UniProt Q9JJ09) (assay: Sodium-dependent phosphate uptake of Xenopus oocytes which expressed NaPi-2b (32P)). Details: Xenopus oocytes expressing rat NaPi-2b, 32P radioactive phosphorus; read-out: IC50 (phosphate uptake inhibitory activity).
T1 construct: expressed in transfected cells; host or cells: Xenopus oocytes injected with cRNA
T1 sequence (Q9JJ09 1-695): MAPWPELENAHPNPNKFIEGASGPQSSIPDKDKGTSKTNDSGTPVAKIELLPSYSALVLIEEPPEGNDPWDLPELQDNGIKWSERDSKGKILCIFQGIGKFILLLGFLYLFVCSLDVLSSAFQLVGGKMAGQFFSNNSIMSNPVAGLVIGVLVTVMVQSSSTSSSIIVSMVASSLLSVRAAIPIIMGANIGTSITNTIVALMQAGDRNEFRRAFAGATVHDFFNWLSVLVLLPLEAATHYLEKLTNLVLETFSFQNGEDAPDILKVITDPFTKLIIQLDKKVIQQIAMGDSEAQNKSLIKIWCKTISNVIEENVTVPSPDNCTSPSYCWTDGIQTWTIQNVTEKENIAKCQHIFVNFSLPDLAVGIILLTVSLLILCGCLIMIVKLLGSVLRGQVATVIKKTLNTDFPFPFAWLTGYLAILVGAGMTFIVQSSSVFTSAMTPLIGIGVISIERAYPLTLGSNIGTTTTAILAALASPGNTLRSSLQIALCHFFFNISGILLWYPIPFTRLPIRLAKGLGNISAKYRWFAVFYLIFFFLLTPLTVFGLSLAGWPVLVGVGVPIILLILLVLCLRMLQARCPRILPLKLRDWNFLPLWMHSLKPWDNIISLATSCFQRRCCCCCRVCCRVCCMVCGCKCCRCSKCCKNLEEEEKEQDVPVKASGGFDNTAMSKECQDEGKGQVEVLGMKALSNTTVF
Format: cell-based
Method in brief: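 Percent inhibition at 300 μM and 100 μM comes from the same inhibition curve of 32P uptake. Assay used oocytes expressing rat NaPi-2b after 2 days of culture.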

| Compound | IC50 |
| --- | --- |
| Cc1ccc(/C=N/NC(=O)c2cc(N3CCCCC3)ccc2NC(=O)c2cccc(CN3CCC(O)CC3)c2)cc1 [Compound 871, 3-(4-Hydroxy-piperidin-1-ylmethyl)-N-[2-(4-methyl-benzylidene-hydrazinocarbonyl)-4-piperidin-1-yl-phenyl]-benzamide] | 1000 nM |
| CCN(CC)CCSCc1cccc(C(=O)Nc2ccc(N3CCCCC3)cc2C(=O)N/N=C/c2ccc(C)c(C)c2)c1 [Compound 876, 3-(2-Diethylamino-ethylsulfanylmethyl)-N-[2-(3,4-dimethyl-benzylidene-hydrazinocarbonyl)-4-piperidin-1-yl-phenyl]-benzamide] | < 3000 nM |
| CCN(CC)CCSCc1cccc(C(=O)Nc2ccc(N3CCCCC3)cc2C(=O)N/N=C/c2ccc(F)cc2)c1 [Compound 877, 3-(2-Diethylamino-ethylsulfanylmethyl)-N-[2-(4-fluoro-benzylidene-hydrazinocarbonyl)-4-piperidin-1-yl-phenyl]-benzamide] | < 300 nM |
| CCN(CC)CCSCc1cccc(C(=O)Nc2ccc(N3CCCCC3)cc2C(=O)NN=Cc2ccc(OC)cc2)c1 [Compound 879, 3-(2-Diethylamino-ethylsulfanylmethyl)-N-[2-(4-methoxy-benzylidene-hydrazinocarbonyl)-4-piperidin-1-yl-phenyl]-benzamide] | 3720 nM |
| COc1ccc(/C=N/NC(=O)c2cc(N3CCCCC3)ccc2NC(=O)c2cccc(CSCCO)c2)cc1 [Compound 885, 3-(2-Hydroxy-ethylsulfanylmethyl)-N-[2-(4-methoxy-benzylidene-hydrazinocarbonyl)-4-piperidin-1-yl-phenyl]-benzamide] | 1240 nM |
| O=C(O)CCSCc1cccc(C(=O)Nc2ccc(N3CCCCC3)cc2C(=O)N/N=C/c2ccc(F)cc2)c1 [Compound 888, 3-{3-[2-(4-Fluoro-benzylidene-hydrazinocarbonyl)-4-piperidin-1-yl-phenylcarbamoyl]-benzylsulfanyl}-propionic acid] | 2550 nM |
| COc1ccc(/C=N/NC(=O)c2cc(N3CCCCC3)ccc2NC(=O)c2cccc(CN3CCc4nc5ncccc5cc4C3)c2)cc1 [Compound 898, 3-(7,8-Dihydro-5H-1,6,9-triaza-anthracen-6-ylmethyl)-N-[2-(4-methoxy-benzylidene-hydrazinocarbonyl)-4-piperidin-1-yl-phenyl]-benzamide] | < 300 nM |
| CCN(CC)CCN(CCN(CC)CC)Cc1cccc(C(=O)Nc2ccc(N3CCCCC3)cc2C(=O)N/N=C/c2ccc(C)c(C)c2)c1 [Compound 905, 3-{[Bis-(2-diethylamino-ethyl)-amino]-methyl}-N-[2-(3,4-dimethyl-benzylidene-hydrazinocarbonyl)-4-piperidin-1-yl-phenyl]-benzamide] | 1180 nM |
| CCN(CC)CCN(CCN(CC)CC)Cc1cccc(C(=O)Nc2ccc(N3CCCCC3)cc2C(=O)N/N=C/c2ccc(C)cc2)c1 [Compound 906, 3-{[Bis-(2-diethylamino-ethyl)-amino]-methyl}-N-[2-(4-methyl-benzylidene-hydrazinocarbonyl)-4-piperidin-1-yl-phenyl]-benzamide] | 1830 nM |
| CCN(CC)CCN(CCN(CC)CC)Cc1cccc(C(=O)Nc2ccc(N3CCCCC3)cc2C(=O)N/N=C/c2ccc(F)cc2)c1 [Compound 907, 3-{[Bis-(2-diethylamino-ethyl)-amino]-methyl}-N-[2-(4-fluoro-benzylidene-hydrazinocarbonyl)-4-piperidin-1-yl-phenyl]-benzamide] | 6750 nM |
| CCN(CC)CCN(CCN(CC)CC)Cc1cccc(C(=O)Nc2ccc(N3CCCCC3)cc2C(=O)N/N=C/c2cccc(F)c2)c1 [Compound 908, 3-{[Bis-(2-diethylamino-ethyl)-amino]-methyl}-N-[2-(3-fluoro-benzylidene-hydrazinocarbonyl)-4-piperidin-1-yl-phenyl]-benzamide] | 13200 nM |
| CCN(CC)CCN(CCN(CC)CC)Cc1cccc(C(=O)Nc2ccc(N3CCCCC3)cc2C(=O)N/N=C/c2ccc(OC)cc2)c1 [Compound 910, 3-{[Bis-(2-diethylamino-ethyl)-amino]-methyl}-N-[2-(4-methoxy-benzylidene-hydrazinocarbonyl)-4-piperidin-1-yl-phenyl]-benzamide] | 7810 nM |
| CCCN(CCC)c1ccc(NC(=O)c2cccc(CN(C)CCN(CC)CC)c2)c(C(=O)N/N=C/c2ccc(Cl)c(C(F)(F)F)c2)c1 [Compound 911, N-[2-(4-Chloro-3-trifluoromethyl-benzylidene-hydrazinocarbonyl)-4-dipropylamino-phenyl]-3-{[(2-diethylamino-ethyl)-methyl-amino]-methyl}-benzamide] | < 1000 nM |
| CCCN(CCC)c1ccc(NC(=O)c2cccc(CN(C)CCN(CC)CC)c2)c(C(=O)N/N=C/c2ccc(OC)cc2)c1 [Compound 912, 3-{[(2-Diethylamino-ethyl)-methyl-amino]-methyl}-N-[4-dipropylamino-2-(4-methoxy-benzylidene-hydrazinocarbonyl)-phenyl]-benzamide] | 1040 nM |
| Cc1ccc(/C=N/NC(=O)c2cc(N3CCCCC3)ccc2NC(=O)c2cccc(CNCCN(CCO)CCO)c2)cc1C [Compound 913, 3-({2-[Bis-(2-hydroxy-ethyl)-amino]-ethylamino}-methyl)-N-[2-(3,4-dimethyl-benzylidene-hydrazinocarbonyl)-4-piperidin-1-yl-phenyl]-benzamide] | 1650 nM |
| COc1ccc(/C=N/NC(=O)c2cc(N3CCCCC3)ccc2NC(=O)c2cccc(CNCCN(CCO)CCO)c2)cc1 [Compound 915, 3-({2-[Bis-(2-hydroxy-ethyl)-amino]-ethylamino}-methyl)-N-[2-(4-methoxy-benzylidene-hydrazinocarbonyl)-4-piperidin-1-yl-phenyl]-benzamide] | 8150 nM |
| CCN(CC)CCN(C)Cc1cccc(C(=O)Nc2ccc(N3CCCC3)cc2C(=O)N/N=C/c2ccc(Cl)c(C(F)(F)F)c2)c1 [Compound 917, N-[2-(4-Chloro-3-trifluoromethyl-benzylidene-hydrazinocarbonyl)-4-pyrrolidin-1-yl-phenyl]-3-{[(2-diethylamino-ethyl)-methyl-amino]-methyl}-benzamide] | 1250 nM |

The next lines start with the values.

| IC50 | Compound |
| --- | --- |
| < 3000 nM | O=C(Nc1ccc(N2CCCCC2)cc1C(=O)N/N=C/c1ccc(F)cc1)c1cccc(CN2CCC(O)CC2)c1 [Compound 872, N-[2-(4-Fluoro-benzylidene-hydrazinocarbonyl)-4-piperidin-1-yl-phenyl]-3-(4-hydroxy-piperidin-1-ylmethyl)-benzamide] |
| 660 nM | O=C(Nc1ccc(N2CCCCC2)cc1C(=O)N/N=C/c1cccc(F)c1)c1cccc(CN2CCC(O)CC2)c1 [Compound 873, N-[2-(3-Fluoro-benzylidene-hydrazinocarbonyl)-4-piperidin-1-yl-phenyl]-3-(4-hydroxy-piperidin-1-ylmethyl)-benzamide] |
| < 300 nM | O=C(Nc1ccc(N2CCCCC2)cc1C(=O)N/N=C/c1ccc(Cl)c(C(F)(F)F)c1)c1cccc(CN2CCC(O)CC2)c1 [Compound 874, N-[2-(4-Chloro-3-trifluoromethyl-benzylidene-hydrazinocarbonyl)-4-piperidin-1-yl-phenyl]-3-(4-hydroxy-piperidin-1-ylmethyl)-benzamide] |
| 5200 nM | COc1ccc(/C=N/NC(=O)c2cc(N3CCCCC3)ccc2NC(=O)c2cccc(CN3CCC(O)CC3)c2)cc1 [Compound 875, 3-(4-Hydroxy-piperidin-1-ylmethyl)-N-[2-(4-methoxy-benzylidene-hydrazinocarbonyl)-4-piperidin-1-yl-phenyl]-benzamide] |
| 14800 nM | COc1ccc(/C=N/NC(=O)c2cc(N3CCCCC3)ccc2NC(=O)c2cccc(CSCC(=O)O)c2)cc1 [Compound 892, {3-[2-(4-Methoxy-benzylidene-hydrazinocarbonyl)-4-piperidin-1-yl-phenylcarbamoyl]-benzylsulfanyl}-acetic acid] |
| < 300 nM | O=C(Nc1ccc(N2CCCCC2)cc1C(=O)N/N=C/c1ccc(Cl)c(C(F)(F)F)c1)c1cccc(CN2CCc3nc4ncccc4cc3C2)c1 [Compound 897, N-[2-(4-Chloro-3-trifluoromethyl-benzylidene-hydrazinocarbonyl)-4-piperidin-1-yl-phenyl]-3-(7,8-dihydro-5H-1,6,9-triaza-anthracen-6-ylmethyl)-benzamide] |
| 1020 nM | CCN(CC)CCN(CCN(CC)CC)Cc1cccc(C(=O)Nc2ccc(N3CCCCC3)cc2C(=O)N/N=C/c2ccc(Cl)c(C(F)(F)F)c2)c1 [Compound 909, 3-{[Bis-(2-diethylamino-ethyl)-amino]-methyl}-N-[2-(4-chloro-3-trifluoromethyl-benzylidene-hydrazinocarbonyl)-4-piperidin-1-yl-phenyl]-benzamide] |
| 5220 nM | CCN(CC)CCN(C)Cc1cccc(C(=O)Nc2ccc(N3CCCC3)cc2C(=O)N/N=C/c2ccc(C)c(C)c2)c1 [Compound 916, 3-{[(2-Diethylamino-ethyl)-methyl-amino]-methyl}-N-[2-(3,4-dimethyl-benzylidene-hydrazinocarbonyl)-4-pyrrolidin-1-yl-phenyl]-benzamide] |

— patent US8134015B2, “Compound inhibiting in vivo phosphorous transport and medicine containing the same” (Kyowa Hakko Kirin Co., Ltd., priority 2003, dated 2012)
